Data on 3 compounds can be found in US4443436A, “C-20-Modified macrolide derivatives of the macrolide antibiotics tylosin, desmycosin, macrocin, and lactenocin” (Eli Lilly and Company, priority 1982, dated 1984).

Values after ≈ are worked out from the molar mass of the structure shown. Read-outs that look alike come from different tables or passages of the source.

For experiment [1], the system named is Pasteurella hemolytica 22C. Description: MIC, broth-dilution microtiter test, Pasteurella hemolytica 22C. To be noted: Pasteurella hemolytica 22C, broth-dilution microtiter. Type of experiment: cell-based. The source says:
(§1) The MIC's in Table X were obtained using conventional broth-dilution microtiter tests.

In experiment [2] the test system is Streptococcus pyogenes C203. Description: MIC, standard agar-dilution assay, Streptococcus pyogenes C203. In kind it is cell-based.
The subject of experiment [3] is Streptococcus Group 9960. Description: MIC, standard agar-dilution assay, Streptococcus Group 9960. Type of experiment: cell-based. To be noted: Streptococcus Group 9960, agar dilution.
Experiment [4] concerns Streptococcus bovis 80. Put plainly: MIC, broth-dilution microtiter test, Streptococcus bovis 80. In kind it is cell-based.
Description: as §1

In experiment [5] the test system is Streptococcus Group D X66. Description: MIC, standard agar-dilution assay, Streptococcus Group D X66. Type of experiment: cell-based.
Experiment [6] concerns Haemophilus influenzae R252. Put plainly: MIC, standard agar-dilution assay, Haemophilus influenzae R252. Type of experiment: cell-based.
In experiment [7] the test system is Pasteurella multocida 60A. Description: MIC, broth-dilution microtiter test, Pasteurella multocida 60A. Type of experiment: cell-based.
Description: as §1

Experiment [8] relates to Staphylococcus aureus. Put plainly: MIC, broth-dilution microtiter test, Staphylococcus aureus. In kind it is cell-based.
Description: as §1

The test system of experiment [9] is Mycoplasma hyopneumoniae. Put plainly: MIC, broth-dilution microtiter test, Mycoplasma hyopneumoniae. Type of experiment: cell-based.
Description: as §1

Experiment [10] has as its system Pasteurella multocida 17E. Put plainly: MIC, broth-dilution microtiter test, Pasteurella multocida 17E. In kind it is cell-based. To be noted: Pasteurella multocida 17E, bovine isolate, broth-dilution microtiter.
Description: as §1

In experiment [11] the test system is Staphylococcus aureus X400. Put plainly: MIC, standard agar-dilution assay, Staphylococcus aureus X400. Type of experiment: cell-based.
Experiment [12] deals with Staphylococcus aureus S13E. Description: MIC, standard agar-dilution assay, Staphylococcus aureus S13E. In kind it is cell-based.
Experiment [13] concerns Mycoplasma gallisepticum. Put plainly: MIC, broth-dilution microtiter test, Mycoplasma gallisepticum. In kind it is cell-based.
Description: as §1

In experiment [14] the test system is Staphylococcus epidermidis EPI1. Put plainly: MIC, standard agar-dilution assay, Staphylococcus epidermidis EPI1. In kind it is cell-based.
Experiment [15] concerns Mycoplasma hyorhinis. Put plainly: MIC, broth-dilution microtiter test, Mycoplasma hyorhinis. Type of experiment: cell-based. To be noted: Mycoplasma hyorhinis, broth-dilution microtiter.
Description: as §1

The subject of experiment [16] is Streptococcus pyogenes C203. Put plainly: In vivo protection of mice experimentally infected with S. pyogenes C203. To be noted: mice, doses given 1 and 4 hours post-infection; for ED50: Streptococcus pyogenes. On the procedure: The C-20 modified derivatives of this invention have shown in vivo antimicrobial activity against experimentally-induced infections in laboratory animals. When two doses of test compound were administered to mice experimentally infected with S. pyogenes C203, the activity observed was measured as an ED50 value [effective dose in mg/kg to protect 50% of the test animals: see Warren Wick, et al., J. Bacteriol. 81, 233-235 (1961)].

Experiment [17] relates to Staphylococcus aureus X1.1. Put plainly: MIC, standard agar-dilution assay, Staphylococcus aureus X1.1. In kind it is cell-based.
In experiment [18] the test system is Haemophilus influenzae Holt. Put plainly: MIC, standard agar-dilution assay, Haemophilus influenzae Holt. In kind it is cell-based. To be noted: Haemophilus influenzae Holt; ampicillin-sensitive strain; agar dilution. On the technique in general: In agar dilution the substance is mixed into plates at graded concentrations.
In experiment [19] the test system is Staphylococcus epidermidis EPI2. Description: MIC, standard agar-dilution assay, Staphylococcus epidermidis EPI2. Type of experiment: cell-based.
The test system of experiment [20] is Mycoplasma synoviae. Put plainly: MIC, broth-dilution microtiter test, Mycoplasma synoviae. In kind it is cell-based.
Description: as §1

Experiment [21] deals with Staphylococcus aureus V41. Put plainly: MIC, standard agar-dilution assay, Staphylococcus aureus V41. Type of experiment: cell-based.
Experiment [22] concerns Streptococcus pneumoniae Park I. Put plainly: microbe, parasite or virus in culture. Type of experiment: cell-based.
Setting [23] is: Streptococcus pyogenes C203, agar dilution.
[24] abbreviates: Streptococcus bovis 80, broth-dilution microtiter.
Where [25] appears, read: Streptococcus Group D X66, agar dilution.
Setting [26] is: Haemophilus influenzae R252, ampicillin-resistant strain, agar dilution.
The mark [27] stands for this setting: Pasteurella multocida 60A, avian isolate, broth-dilution microtiter.
[28] abbreviates: Mycoplasma hyopneumoniae, broth-dilution microtiter.
Setting [29] is: Staphylococcus aureus X400, methicillin-resistant strain, agar dilution.
Where [30] appears, read: Staphylococcus aureus S13E, agar dilution.
Where [31] appears, read: Mycoplasma gallisepticum, broth-dilution microtiter.
Setting [32] is: Staphylococcus epidermidis EPI1, agar dilution.
Setting [33] is: Staphylococcus aureus X1.1, agar dilution.
[34] abbreviates: Staphylococcus epidermidis EPI2, agar dilution.

Broadly, the ED50 is the dose at which the effect has come halfway, by size or by number of responders.

In the case of “20-DH-20-O-(Phenylsulfinyl)desmycosin [Compound 25]”, the MIC in experiment [1] turned out to be 12.5 µg/mL; in [2] (setting [23]), 0.25 µg/mL; in experiment [3] it was 4 µg/mL; in experiment [4] (setting [24]), 3.12 µg/mL; in [5] (setting [25]) it was 4 µg/mL; in [6] (setting [26]), 4 µg/mL. The MIC in [7] (setting [27]) came out at 6.25 µg/mL; in experiment [8] (broth-dilution microtiter) it was 0.39 µg/mL; in experiment [9] (setting [28]), 12.5 µg/mL; in [10], 12.5 µg/mL; in experiment [11] (setting [29]) it was 0.25 µg/mL; in [12] (setting [30]), 0.25 µg/mL. Also, the MIC was below 0.05 µg/mL in [13] (setting [31]); 0.25 µg/mL in [14] (setting [32]); “-- (Not active at 50 mcg/ml, the highest level tested)” in experiment [15]; 0.25 µg/mL in [17] (setting [33]); 8 µg/mL in experiment [18]; 0.12 µg/mL in [19] (setting [34]). The compound also returned an MIC in experiment [20] (Mycoplasma synoviae, broth-dilution microtiter) of 0.19 µg/mL. In addition, the “ED50, Oral” value in experiment [16] (oral) worked out at 45 mg/kg × 2. In experiment [16] (subcutaneous), the “ED50, Subcutaneous” value was found to be 5.0 mg/kg × 2.

As to `CCC1OC(=O)CC(O)C(C)C(OC2OC(C)C(O)C(N(C)C)C2O)C(CCOc2cccc(N(C)C)c2)CC(C)C(=O)C=CC(C)=CC1COC1OC(C)C(O)C(OC)C1OC` (centres unmarked) [Compound 39, 20-DH-20-O-[m-(N,N-Dimethylamino)phenyl]desmycosin], the MIC was above 50 µg/mL in experiment [1] (read-out: MIC); 0.25 µg/mL (≈ 0.28 µM) in experiment [2] (Streptococcus pyogenes, C203); 8 µg/mL (≈ 8.96 µM) in experiment [3] (GROUP9960, read-out: MIC); 1.56 µg/mL (≈ 1.75 µM) in [4] (Streptococcus equinus, 80); 4 µg/mL (≈ 4.48 µM) in experiment [5]; 16 µg/mL (≈ 17.9 µM) in experiment [6] (Haemophilus influenzae, R252). In addition, the MIC in experiment [7] (Pasteurella multocida, 60A) came to 12.5 µg/mL (≈ 14 µM); in experiment [8], 6.25 µg/mL (≈ 7 µM); in experiment [9] (Mesomycoplasma hyopneumoniae) it was 6.25 µg/mL (≈ 7 µM); in experiment [21] (Staphylococcus aureus, V41) it was 0.5 µg/mL (≈ 0.56 µM); in experiment [10] (read-out: MIC) it was 25 µg/mL (≈ 28 µM); in experiment [11] (Staphylococcus aureus, X400), 0.5 µg/mL (≈ 0.56 µM). Besides, the MIC was found to be 0.5 µg/mL (≈ 0.56 µM) in experiment [12] (Staphylococcus aureus, S13E); 1.56 µg/mL (≈ 1.75 µM) in experiment [13] (Mycoplasmoides gallisepticum); 1 µg/mL (≈ 1.12 µM) in [22] (Streptococcus pneumoniae); 0.5 µg/mL (≈ 0.56 µM) in experiment [14] (Staphylococcus epidermidis, EPI1); 25 µg/mL (≈ 28 µM) in experiment [15] (read-out: MIC); 0.5 µg/mL (≈ 0.56 µM) in experiment [17] (Staphylococcus aureus, X1.1). The MIC worked out at 0.25 µg/mL (≈ 0.28 µM) in experiment [19] (Staphylococcus epidermidis, EPI2) and 1.56 µg/mL (≈ 1.75 µM) in [20] (Mycoplasmopsis synoviae). For the same compound, the ED50 in [16] (C203, sc, subcutaneous, read-out: ED50, Subcutaneous) was found to be 6.7 mg/kg; in experiment [16] (C203, oral, read-out: ED50, Oral) it was 19 mg/kg.

In the case of `CCC(=O)OC1C(C)OC(OC2C(CCN3C(=O)c4ccccc4C3=O)CC(C)C(=O)C=CC(C)=CC(COC3OC(C)C(O)C(OC)C3OC)C(CC)OC(=O)CC(O)C2C)C(OC(=O)CC)C1N(C)C` (centres unmarked) [Compound 66, 20-DH-DO-20-N-Phthalimido-2',4'-di-O-propionyldesmycosin], the MIC in experiment [1] was found to be 25 µg/mL (≈ 24.6 µM); in [2] (setting [23]) it was 2 µg/mL (≈ 1.97 µM); in experiment [3], 8 µg/mL (≈ 7.88 µM); in experiment [4] (setting [24]), 6.25 µg/mL (≈ 6.16 µM); in experiment [5] (setting [25]) it was 8 µg/mL (≈ 7.88 µM); in experiment [6] (setting [26]), 64 µg/mL (≈ 63 µM). Also, the MIC in [7] (setting [27]) is 25 µg/mL (≈ 24.6 µM); in experiment [8] (broth-dilution microtiter), 0.78 µg/mL (≈ 0.768 µM); in experiment [9] (setting [28]), 25 µg/mL (≈ 24.6 µM); in experiment [21] (Staphylococcus aureus V41, penicillin-resistant strain, agar dilution) it was 0.5 µg/mL (≈ 0.493 µM); in [10], 25 µg/mL (≈ 24.6 µM); in [11] (setting [29]), 1 µg/mL (≈ 0.985 µM). Besides, the MIC in [12] (setting [30]) amounted to 0.5 µg/mL (≈ 0.493 µM); in experiment [13] (setting [31]) it was 0.09 µg/mL (≈ 0.0887 µM); in [22] (Streptococcus pneumoniae Park I, agar dilution), 0.5 µg/mL (≈ 0.493 µM); in experiment [14] (setting [32]), 0.5 µg/mL (≈ 0.493 µM); in [15], 50 µg/mL (≈ 49.3 µM); in experiment [17] (setting [33]), 0.5 µg/mL (≈ 0.493 µM). Also, the MIC turned out to be 64 µg/mL (≈ 63 µM) in [18] and 0.25 µg/mL (≈ 0.246 µM) in experiment [19] (setting [34]). Besides, the “ED50, Oral” value in experiment [16] (oral) is 31 mg/kg × 2. In experiment [16] (subcutaneous), the “ED50, Subcutaneous” value was above 6.3 mg/kg × 2.
